Test results taken from US8895317B2, “Reagent for measuring active nitrogen” (The University of Tokyo, priority 2008, dated 2014).

Experiments:
[1] = Fluorescence quantum yield; type: physicochemical; conditions: triazole compound at a physiological pH
Description: (§1) Therefore, use of DCl-DA Cal enables observation of intracellular reactive nitrogen species over such a long period of time that cannot be achieved by conventional fluorescent probes for measuring reactive nitrogen.

[2] = Stability under physiological conditions; type: physicochemical
Description: as §1

O=C(O)CN(CC(=O)O)Cc1c2oc3c(CN(CC(=O)O)CC(=O)O)c(O)c(Cl)cc3c(-c3ccc4[nH]nnc4c3C(=O)O)c-2cc(Cl)c1=O [triazole compound]
fluorescence quantum yield Φf [1]: 0.63 | stability under physiological conditions [2]: stable under physiological conditions
